Laboratory results from patent US8318749B2, “Quinazoline derivatives as NK3 receptor antagonists” (Hoffmann-La Roche Inc., priority 2008, dated 2012).

Biological target: T1, recombinant human NK3 receptor (Homo sapiens, UniProt P29371)
T1 construct: expressed in transfected cells; host or cells: HEK293 cells (transient expression), membrane preparation
T1 sequence (P29371 1-465): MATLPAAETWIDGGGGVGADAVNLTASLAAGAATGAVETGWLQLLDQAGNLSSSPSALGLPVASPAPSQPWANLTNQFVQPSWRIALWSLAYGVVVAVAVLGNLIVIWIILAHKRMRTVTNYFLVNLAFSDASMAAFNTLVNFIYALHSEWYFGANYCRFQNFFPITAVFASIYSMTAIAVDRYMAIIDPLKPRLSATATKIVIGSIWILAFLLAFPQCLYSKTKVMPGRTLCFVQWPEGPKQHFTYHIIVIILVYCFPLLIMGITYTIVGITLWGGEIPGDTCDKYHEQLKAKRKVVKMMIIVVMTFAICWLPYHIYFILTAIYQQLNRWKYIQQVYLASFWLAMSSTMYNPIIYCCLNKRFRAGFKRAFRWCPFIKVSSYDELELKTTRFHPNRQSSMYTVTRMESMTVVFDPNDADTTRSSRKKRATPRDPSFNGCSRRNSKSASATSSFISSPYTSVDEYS
Test: [3H]SR142801 competition binding assay
Conditions: membrane from HEK293 cells transiently expressing recombinant human NK3 receptor; radioligand [3H]SR142801; 75 min at RT
Description: [^3H]SR142801 Competition Binding Assay
hNK3 receptor binding experiment were performed using [^3H]SR142801 (Catalog No. TRK1035, specific activity: 74.0 Ci/mmol, Amersham, GE Healthcare UK limited, Buckinghamshire, UK) and membrane isolated from HEK293 cells transiently expressing recombinant human NK3 receptor. After thawing, the membrane homogenates were centrifuged at 48,000×g for 10 min at 4° C., the pellets were resuspended in the 50 mM Tris-HCl, 4 mM MnCl2, 1 μM phosphoramidon, 0.1% BSA binding buffer at pH 7.4 to a final assay concentration of 5 μg protein/well. […] At the end of the incubation, membranes were filtered onto unitfilter (96-well white microplate with bonded GF/C filter preincubated 1 h in 0.3% PEI+0.3% BSA, Packard BioScience, Meriden, Conn.) with a Filtermate 196 harvester (Packard BioScience) and washed 4 times with ice-cold 50 mM Tris-HCl, pH 7.4 buffer. Nonspecific binding was measured in the presence of 10 μM SB222200 for both radioligands. The radioactivity on the filter was counted (5 min) on a Packard Top-count microplate scintillation counter with quenching correction after addition of 45 μl of microscint 40 (Canberra Packard S.A., Zürich, Switzerland) and shaking for 1 h. Inhibition curves were fitted according to the Hill equation: y=100/(1+(x/IC50)^nH), where nH=slope factor using Excel-fit 4 software (Microsoft). IC50 values were derived from the inhibition curve and the affinity constant (Ki) values were calculated using the Cheng-Prussoff equation Ki=IC50/(1+[L]/KD) where [L] is the concentration of radioligand and KD is its dissociation constant at the receptor, derived from the saturation isotherm. All experiments were performed in duplicate and the mean±standard error (SEM) of the individual Ki values was calculated.

Ki [nM] | Structure (SMILES)
38.3 | COc1cc2nc(N3CCC(CC4CC4)(C(=O)NCc4ccccc4)CC3)nc(O)c2cc1OC [Example 72, 4-Cyclopropylmethyl-1-(4-hydroxy-6,7-dimethoxy-quinazolin-2-yl)-piperidine-4-carboxylic acid benzylamide]
7.6 | COc1cc2nc(N3CCC(CC4CCC4)(C(=O)N(C)Cc4ccccc4)CC3)nc(O)c2cc1OC [Example 80, 4-Cyclobutylmethyl-1-(4-hydroxy-6,7-dimethoxy-quinazolin-2-yl)-piperidine-4-carboxylic acid benzyl-methyl-amide]
9.3 | COc1cc2nc(N3CCC(Cc4ccccc4)(C(=O)NCc4ccccc4)CC3)nc(O)c2cc1F [Example 88, 4-Benzyl-1-(6-fluoro-4-hydroxy-7-methoxy-quinazolin-2-yl)-piperidine-4-carboxylic acid benzylamide]
5.8 | COc1cc2nc(N3CCC(CC4CCC4)(C(=O)NCc4ccccc4)CC3)nc(O)c2cc1OC [Example 76, 4-Cyclobutylmethyl-1-(4-hydroxy-6,7-dimethoxy-quinazolin-2-yl)-piperidine-4-carboxylic acid benzylamide]
47.8 | COc1cc2nc(N3CCC(CC4CC4)(C(=O)N(C)Cc4ccccc4)CC3)nc(O)c2cc1OC [Example 75, 4-Cylcopropylmethyl-1-(4-hydroxy-6,7-dimethoxy-quinazolin-2-yl)-piperidine-4-carobxylic acid benzyl-methyl-amide]
6.1 | O=C(NCc1ccccc1)C1(Cc2ccccc2)CCN(c2nc(O)c3ccc(C(F)(F)F)cc3n2)CC1 [Example 98, 4-Benzyl-1-(4-hydroxy-7-trifluoromethyl-quinazolin-2-yl)-piperidine-4-carboxylic acid benzylamide]
48.7 | COc1cc2nc(N3CCC(Cc4ccccc4)(C(=O)NC(CO)c4ccccc4)CC3)nc(N)c2cc1OC (stereo not shown) [Example 41, 1-(4-Amino-6,7-dimethoxy-quinazolin-2-yl)-4-benzyl-piperidine-4-carboxylic acid (2-hydroxy-1-phenyl-ethyl)-amide]
10.1 | COc1cc2nc(N3CCC(Cc4ccccc4)(C(=O)NC4CCc5ccccc5C4)CC3)nc(N)c2cc1OC (stereo not shown) [Example 40, 1-(4-Amino-6,7-dimethoxy-quinazolin-2-yl)-4-benzyl-piperidine-4-carboxylic acid (1,2,3,4-tetrahydro-naphthalen-2-yl)-amide]
4.9 | O=C(NCc1ccccc1)C1(Cc2ccccc2)CCN(c2nc(O)c3ccc(OC(F)(F)F)cc3n2)CC1 [Example 99, 4-Benzyl-1-(4-hydroxy-7-trifluoromethoxy-quinazolin-2-yl)-piperidine-4-carboxylic acid benzylamide]
66 | COc1cc2nc(N3CCC(CC4CCC4)(C(=O)NC4CCCC4)CC3)nc(O)c2cc1OC [Example 78, 4-Cyclobutylmethyl-1-(4-hydroxy-6,7-dimethoxy-quinazolin-2-yl)-piperidine-4-carboxylic acid cyclopentylamide]
17.2 | COc1cc2nc(N3CCC(Cc4ccccc4)(C(=O)NCc4ccc(N(C)C)cc4)CC3)nc(N)c2cc1OC [Example 33, 1-(4-Amino-6,7-dimethoxy-quinazolin-2-yl)-4-benzyl-piperidine-4-carboxylic acid 4-dimethylamino-benzylamide]
11.2 | CC(C)Oc1ccc2c(O)nc(N3CCC(Cc4ccccc4)(C(=O)NCc4ccccc4)CC3)nc2c1 [Example 96, 4-Benzyl-1-(4-hydroxy-7-isopropoxy-quinazolin-2-yl)-piperidine-4-carboxylic acid benzylamide]
8.3 | CCOc1cc2nc(N3CCC(Cc4ccccc4)(C(=O)NCc4ccccc4)CC3)nc(O)c2cc1OC(F)F [Example 94, 4-Benzyl-1-(6-difluoromethoxy-7-ethoxy-4-hydroxy-quinazolin-2-yl)-piperidine-4-carboxylic acid benzylamide]
